IC50 data for 20 compounds are collected here from US20250136558A1, “PYRAZINE COMPOUNDS AS IRREVERSIBLE INHIBITORS OF FLT3” (BIOMEA FUSION, INC., priority 2021, published 2025).

Type in all cases: cell-based
The subject of one assay is MOLM-13. As to the kind of experiment: Proliferation inhibition (CellTiter-Glo) in MOLM-13 cells. The following applies: Homo sapiens, 96 h, MOLM-13 AML cells, heterozygous FLT3-ITD, IC50 (4 days). In a few lines: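 MOLM-13 human AML cells, heterozygous for FLT3-ITD, were grown in RPMI-1640 with 10% heat-inactivated FBS and 1% Pen-Strep. About 10,000 cells in 200 μL were seeded per well of 96-well plates. After 2 hours, compounds from DMSO stocks were dispensed at eight concentrations in duplicate, with 0.2% DMSO as the untreated control. Viability was read as CellTiter-Glo ATP luminescence, and IC50 was obtained from a four-parameter logistic fit.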
Background: Cellular ATP, detected with luciferase, serves as a proxy for viable cell number.

The test system of another assay is MV-4-11. As to the kind of experiment: Proliferation inhibition (CellTiter-Glo) in MV-4-11 cells. As to conditions: Homo sapiens, MV4-11, 96 h, MV-4-11 AML cells, homozygous FLT3-ITD, IC50 (4 days). In short, it runs like this:
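MV-4-11 human AML cells (homozygous FLT3-ITD) grown in RPMI-1640 with 10% heat-inactivated FBS and 1% Pen-Strep were seeded at about 10,000 cells per 200 μL in 96 well plates. Two hours later, compounds were dispensed at eight concentrations in duplicate. Viability was measured by CellTiter-Glo luminescence, and IC50 values came from four-parameter logistic non-linear regression against untreated cells (0.2% DMSO).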

A further assay has as its system K-562. Put plainly: Proliferation inhibition (CellTiter-Glo) in K-562 cells. The following applies: Homo sapiens, K562, 96 h, K-562 CML cells, no FLT3 mutations, IC50 (4 days). In short, it runs like this:
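The CML line […] (ATCC: CRL-3343) was cultured in RPMI-1640 with 10% heat-inactivated FBS and 1% Pen-Strep at 37° C. Cells were seeded at about 10,000 per 200 μL in 96-well plates, and test compound was dispensed 2 hours later at eight concentrations in duplicate. Viability was measured as ATP luminescence with CellTiter-Glo. Untreated cells (0.2% DMSO) defined 100% proliferation, and IC50 values came from four-parameter logistic fits.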

By IC50 is commonly meant the concentration needed to halve the response being measured. A low value points to greater potency. With `C=CS(=O)(=O)NCC#Cc1cccc(Nc2nc(NC3CCOCC3)c(CC)nc2C(N)=O)c1` [Compound 10, 6-Ethyl-5-((tetrahydro-2H-pyran-4-yl)amino)-3-((3-(3-(vinylsulfonamido)prop-1-yn-1-yl)phenyl)amino)pyrazine-2-carboxamide], the results for the IC50 with MOLM-13, with MV-4-11 and in the assay on K-562 were 100 to 500 nM, 100 to 500 nM and > 500 nM, respectively.
With `C=CC(=O)N(C)[C@@H](C)C(=O)NCC#Cc1cc(Nc2nc(NC3CCOCC3)c(CC)nc2C(N)=O)ccc1OC` [Compound 113, 6-ethyl-3-[4-methoxy-3-[3-[[(2S)-2-[methyl(prop-2-enoyl)amino]propanoyl]amino]prop-1-ynyl]anilino]-5-(tetrahydropyran-4-ylamino)pyrazine-2-carboxamide], the IC50 in the assay on MOLM-13 was 1 to 10 nM; with MV-4-11 it was < 1 nM; with K-562, > 500 nM.
For `CC#CC(=O)NCCCCOc1cccc(Nc2nc(NC3CCOCC3)c(CC)nc2C(N)=O)c1` [Compound 6, 3-((3-(4-(But-2-ynamido)butoxy)phenyl)amino)-6-ethyl-5-((tetrahydro-2H-pyran-4-yl)amino)pyrazine-2-carboxamide] the same measures were 100 to 500 nM, 100 to 500 nM and > 500 nM.
Regarding `CCc1nc(C(N)=O)c(Nc2cccc(OCCCNC(=O)[C@H](C)N(C)C(=O)/C=C/CN3CC(F)C3)c2)nc1NC1CCOCC1` [Compound 139, (S,E)-6-Ethyl-3-((3-(3-(2-(4-(3-fluoroazetidin-1-yl)-N-methylbut-2-enamido)propanamido)propoxy)phenyl)amino)-5-((tetrahydro-2H-pyran-4-yl)amino)pyrazine-2-carboxamide], the IC50 in the assay on MOLM-13 was 1 to 10 nM; with MV-4-11, < 1 nM; in the assay with K-562 it was > 500 nM.
The matching figures for `CCc1nc(C(N)=O)c(Nc2cccc(OCCCNC(=O)[C@H](C)N(C)C(=O)/C=C/CN(C)C)c2)nc1NC1CCC(F)(F)CC1` [Compound 123, (S,E)-5-((4,4-difluorocyclohexyl)amino)-3-((3-(3-(2-(4-(dimethylamino)-N-methylbut-2-enamido)propanamido)propoxy)phenyl)amino)-6-ethylpyrazine-2-carboxamide]: 1 to 10 nM, < 1 nM and > 500 nM.
On to `CC#CC(=O)N(C)CCCC(=O)NCCc1cc(Nc2nc(NC3CCOCC3)c(CC)nc2C(N)=O)cc(OC)c1` [Compound 33, 3-[3-[2-[4-[but-2-ynoyl(methyl)amino]butanoylamino]ethyl]-5-methoxy-anilino]-6-ethyl-5-(tetrahydropyran-4-ylamino)pyrazine-2-carboxamide], for which the IC50 with MOLM-13 is 10 to 100 nM; with MV-4-11 it was 10 to 100 nM; in the assay with K-562 it was > 500 nM.
As to `C=CC(=O)NCC#Cc1cccc(Nc2nc(NC3CCOCC3)c(CC)nc2C(N)=O)c1` [Compound 9, 3-((3-(3-Acrylamidoprop-1-yn-1-yl)phenyl)amino)-6-ethyl-5-((tetrahydro-2H-pyran-4-yl)amino)pyrazine-2-carboxamide], the IC50 in the assay with MOLM-13 was 10 to 100 nM; in the assay on MV-4-11, 10 to 100 nM; in the assay on K-562, > 500 nM.
With `C=CC(=O)NCCCC(=O)NCCc1cc(Nc2nc(NC3CCOCC3)c(CC)nc2C(N)=O)cc(OC)c1` [Compound 28, 3-((3-(2-(4-Acrylamidobutanamido)ethyl)-5-methoxyphenyl)amino)-6-ethyl-5-((tetrahydro-2H-pyran-4-yl)amino)pyrazine-2-carboxamide], the IC50 with MOLM-13 is 100 to 500 nM; in the assay with MV-4-11, 100 to 500 nM; in the assay with K-562 it was > 500 nM.
On to `CCc1nc(C(N)=O)c(Nc2cc(F)cc(OCCCNC(=O)[C@H](C)N(C)C(=O)/C=C/CN(C)C)c2)nc1N(C)C` [Compound 149, (S,E)-5-(dimethylamino)-3-((3-(3-(2-(4-(dimethylamino)-N-methylbut-2-enamido)propanamido)propoxy)-5-fluorophenyl)amino)-6-ethylpyrazine-2-carboxamide], for which the IC50 in the assay with MOLM-13 is 1 to 10 nM; in the assay with MV-4-11, < 1 nM; in the assay with K-562, > 500 nM.
The matching figures for `CCc1nc(C(N)=O)c(Nc2cccc(CCNC(=O)C(C)(C)N(C)C(=O)/C=C/CN(C)C)c2)nc1C` [Compound 229, (E)-3-((3-(2-(2-(4-(dimethylamino)-N-methylbut-2-enamido)-2-methylpropanamido)ethyl)phenyl)amino)-6-ethyl-5-methylpyrazine-2-carboxamide]: > 500 nM, > 500 nM and > 500 nM.
For the compound `C=CC(=O)N1CCC(C(=O)Nc2cccc(Nc3nc(NC4CCOCC4)c(CC)nc3C(N)=O)c2)CC1` [Compound 102, 6-ethyl-3-[3-[(1-prop-2-enoylpiperidine-4-carbonyl)amino]anilino]-5-(tetrahydropyran-4-ylamino)pyrazine-2-carboxamide], the IC50 with MOLM-13 is 10 to 100 nM; with MV-4-11, 10 to 100 nM; with K-562 it was > 500 nM.
Consider `CCc1nc(C(N)=O)c(Nc2cccc(OC(C)CNC(=O)[C@H](C)N(C)C(=O)/C=C/CN(C)C)c2)nc1NC1CCOCC1` (stereo partly drawn) [Compound 115A, 3-[3-[2-[[(2S)-2-[[(E)-4-(dimethylamino)but-2-enoyl]-methyl-amino]propanoyl]amino]-1-methyl-ethoxy]anilino]-6-ethyl-5-(tetrahydropyran-4-ylamino)pyrazine-2-carboxamide], for which the IC50 is 1 to 10 nM in the assay on MOLM-13, < 1 nM in the assay on MV-4-11 and > 500 nM with K-562.
The matching figures for `C=CS(=O)(=O)NCCNc1cc(Nc2nc(NC3CCOCC3)c(CC)nc2C(N)=O)ccn1` [Compound 23, 6-Ethyl-5-((tetrahydro-2H-pyran-4-yl)amino)-3-((2-((2-(vinylsulfonamido)ethyl)amino)pyridin-4-yl)amino)pyrazine-2-carboxamide]: 10 to 100 nM, 10 to 100 nM and 100 to 500 nM.
For `CCc1nc(C(N)=O)c(Nc2cccc(OCCCNC(=O)[C@H](C)N(C)C(=O)/C=C/CN(C)C)c2)nc1N(C)C` [Compound 118, (S,E)-5-(dimethylamino)-3-((3-(3-(2-(4-(dimethylamino)-N-methylbut-2-enamido)propanamido)propoxy)phenyl)amino)-6-ethylpyrazine-2-carboxamide] the same measures were 1 to 10 nM, < 1 nM and > 500 nM.
As to `CCc1nc(C(N)=O)c(Nc2cccc(OCCCNC(=O)[C@H](C)N(C)C(=O)/C=C/CN(C)C)c2)nc1N(C)C(C)C` [Compound 145, (S,E)-3-((3-(3-(2-(4-(dimethylamino)-N-methylbut-2-enamido)propanamido)propoxy)phenyl)amino)-6-ethyl-5-(isopropyl(methyl)amino)pyrazine-2-carboxamide], the IC50 with MOLM-13 was 1 to 10 nM; in the assay with MV-4-11 it was < 1 nM; in the assay with K-562, > 500 nM.
For `C=CS(=O)(=O)N(C)[C@@H](C)C(=O)NCC#Cc1cccc(Nc2nc(NC3CCOCC3)c(CC)nc2C(N)=O)c1` [Compound 19, (S)-6-Ethyl-3-((3-(3-(2-(N-methylvinylsulfonamido)propanamido)prop-1-yn-1-yl)phenyl)amino)-5-((tetrahydro-2H-pyran-4-yl)amino)pyrazine-2-carboxamide] the same measures were > 500 nM, > 500 nM and > 500 nM.
For `C#CC(=O)NCCNc1cc(Nc2nc(NC3CCOCC3)c(CC)nc2C(N)=O)ccn1` [Compound 21, 6-Ethyl-3-((2-((2-propiolamidoethyl)amino)pyridin-4-yl)amino)-5-((tetrahydro-2H-pyran-4-yl)amino)pyrazine-2-carboxamide] the same measures were 10 to 100 nM, 10 to 100 nM and 100 to 500 nM.
The matching figures for `CCc1nc(C(N)=O)c(Nc2cccc(OCCCNC(=O)[C@H](C)N(C)C(=O)/C=C/CN(C)C)c2)nc1NC(CC)CC` [Compound 122, (S,E)-3-((3-(3-(2-(4-(dimethylamino)-N-methylbut-2-enamido)propanamido)propoxy)phenyl)amino)-6-ethyl-5-(pentan-3-ylamino)pyrazine-2-carboxamide]: < 1 nM, < 1 nM and > 500 nM.
With `CC#CC(=O)NCCNc1cc(Nc2nc(NC3CCOCC3)c(CC)nc2C(N)=O)ccn1` [Compound 22, 3-((2-((2-(But-2-ynamido)ethyl)amino)pyridin-4-yl)amino)-6-ethyl-5-((tetrahydro-2H-pyran-4-yl)amino)pyrazine-2-carboxamide], the IC50 is 10 to 100 nM with MOLM-13, 10 to 100 nM in the assay with MV-4-11 and > 500 nM in the assay on K-562.
As for `C=CS(=O)(=O)NCCCNc1cc(Nc2nc(NC3CCOCC3)c(CC)nc2C(N)=O)ccn1` [Compound 27, 6-Ethyl-5-((tetrahydro-2H-pyran-4-yl)amino)-3-((2-((3-(vinylsulfonamido)propyl)amino)pyridin-4-yl)amino)pyrazine-2-carboxamide], the IC50 in the assay with MOLM-13 was 10 to 100 nM; with MV-4-11, 10 to 100 nM; in the assay on K-562, > 500 nM.
